In patent US20070078174A1 (priority 2005, published 2007):
Where a name gives a salt, the structure may show the parent alone.

Columns and labels:
[1] = clinical; details: human, plasma, other: sublingual and oral
Experimental: Two groups were randomized and there was a one week washout period between administrations. The volunteers were in the fasted state when the drugs were administered. […] The oral formulation was administered with a glass of water. […] The samples were blinded from the analysts. […]

[2] = clinical; details: male, human, plasma
Experimental: The study was a randomized open label study with a four period comparative crossover study. […] The blood samples were taken at “0” hour (pre-dosing), 10 min, 20 min, 40 min, 1.0.
The study contained twelve (12) male subjects aged 18-55 years. […] However the available pharmacokinetic data from all twelve (12) subjects was included in the statistical analysis, as required by the study protocol.
The study administered the single dosages in four different forms.

[3] = cited from earlier work

Q: Which results are given for `Clc1ccc2nsnc2c1NC1=NCCN1` [tizanidine, Tizanidine hydrochloride]?
A: half-life [1]: 90 to 102 min; half-life [2]: 90 to 102 min; absolute bioavailability ([3]; administered orally, extensive hepatic first pass metabolism): about 40%; bioavailability ([3]; lowered by first-pass hepatic metabolism): 22-40%; terminal half life ([3]; reported): 2.5 h
